According to patent publication US20250154121A1, “CYCLIC(ALKYL)(AMINO)ALKOXY-SUBSTITUTED ARYL-PYRONE COMPOUND AND USE THEREOF” (priority 2022, published 2025):
Where two headings read alike, the source gives them in different places.

What was measured:
[1] = test system: Sendai strain of parainfluenza virus; assay type: in vivo; conditions: Table 11 (Example 24)
[2] = test system: Human Coronavirus 229E (HCoV-229E); test: animal or person; assay type: in vivo; conditions: for inhibition in vivo at 7.5 mg/kg/day / inhibition in vivo at 15 mg/kg/day / inhibition in vivo at 30 mg/kg/day / inhibition in vivo at 40 mg/kg/day / inhibition in vivo at 50 mg/kg/day: Human coronavirus 229E, in Mus musculus, po, 96 h, read-out: inhibition rate (%)
[3] = test system: Influenza A (H1N1) virus FM1 strain; test: Mouse pneumonia model infected with influenza A (H1N1) virus FM1 strain (lung index); assay type: in vivo, ICR mice; conditions: for inhibition in vivo at 20 mg/kg / inhibition in vivo at 40 mg/kg / inhibition in vivo at 25 mg/kg / inhibition in vivo at 50 mg/kg: Influenza A virus, H1N1, po, 96 h, read-out: inhibition rate (%)
Protocol: ICR mice were taken and randomly divided into: normal control group, model control group, ribavirin control group, compound 4, compound F1, compound F2, and compound F3 according to their weight class, and each drug was given in two dosage groups (10 mice in each group). Except for the normal control group, mice were slightly anesthetized with ether and infected with 15 LD50 H1N1 influenza virus liquid FM1 strain by nasal drops (30 μl per animal). The administration was started on the day of infection at 0.2 ml/10 g by gavage each time once a day for 4 days, and the normal control and model control groups were gavaged with distilled water under the same conditions. The mice were weighed and dissected on Day 5, and the lung was weighed to calculate lung index and lung index inhibition. The results were statistically processed using t-test for comparison between groups.
ICR mice were taken and randomly divided by weight class: normal control group, model control group, oseltamivir control group, compound 4, compound F4, compound F5, compound 5, and compound 7 according to their weight class, and each drug was given in two dosage groups (10 mice in each group). Except for the normal control group, mice were slightly anesthetized with ether and infected with 15 LD50 H1N1 influenza virus liquid (FM1/PR8 strain) by nasal drops (30 μl per each animal). The administration was started on the day of infection at 0.2 ml/10 g by gavage each time once a day for 4 days, and the normal control and model control groups were gavaged with distilled water under the same conditions. The mice were weighed and dissected on Day 5, and lung was weighed to calculate lung index and lung index inhibition. The results were statistically processed using t-test for comparison between groups.
ICR mice were taken and randomly divided into 9 groups according to the body weight: a normal control group, model control group, oseltamivir control group, and two dosage groups of Compound 9, Compound 12 and Compound 2, 10 mice in each group. Except the normal control group, mice were slightly anesthetized with ether and infected with 15 LD50 H1N1/PR8 influenza virus liquid by nasal drops at 30 μl per mouse. The administration was started on the day of infection, at 0.2 ml/10 g each time by gavage once a day for 4 days, and the normal control and model control groups were gavaged with distilled water under the same conditions. The mice were weighed and dissected on Day 5, and lungs were weighed to calculate lung index and lung index inhibition. The results were statistically processed using t-test for comparison between groups.

[4] = Table 10 (Example 23), 7.5 mg/kg/d gavage for 4 days
[5] = Table 2 (Example 14), 20 mg/kg gavage once a day for 4 days
[6] = Table 2 (Example 14), 40 mg/kg gavage once a day for 4 days
[7] = Table 5 (Example 16), 7.5 mg/kg/d gavage for 4 days
[8] = Table 5 (Example 16), 15 mg/kg/d gavage for 4 days
[9] = Table 5 (Example 16), 30 mg/kg/d gavage for 4 days
[10] = Table 1 (Example 13), 25 mg/kg gavage once a day for 4 days
[11] = Table 1 (Example 13), 50 mg/kg gavage once a day for 4 days
[12] = Table 4 (Example 15), 40 mg/kg/d gavage for 4 days
[13] = Table 4 (Example 15), 50 mg/kg/d gavage for 4 days

Structure (SMILES)	inhibition rate % ([1]; 7.5 mg/kg/d gavage for 4 days) [%]	lung index ([1]; 7.5 mg/kg/d gavage for 4 days)	inhibition rate % ([1]; 15 mg/kg/d gavage for 4 days) [%]	lung index ([1]; 15 mg/kg/d gavage for 4 days)	inhibition in vivo at 7.5 mg/kg/day [2, 4] [%]	lung index [2, 4]	inhibition in vivo at 20 mg/kg [3, 5] [%]	inhibition in vivo at 40 mg/kg [3, 6] [%]	lung index [3, 5]	lung index [3, 6]	inhibition in vivo at 7.5 mg/kg/day [2, 7] [%]	inhibition in vivo at 15 mg/kg/day [2, 8] [%]	inhibition in vivo at 30 mg/kg/day [2, 9] [%]	lung index [2, 7]	lung index [2, 8]	lung index [2, 9]	inhibition in vivo at 25 mg/kg [3, 10] [%]	inhibition in vivo at 50 mg/kg [3, 11] [%]	lung index [3, 10]	lung index [3, 11]	also measured
CC(=O)N(CCOc1ccc2c(=O)c(-c3ccccc3)coc2c1)C1CC1 [Compound 10]	7.43	0.83 ± 0.06 Lung weight * 100/body weight	−16.30	0.86 ± 0.05 Lung weight * 100/body weight	25.6	0.85 ± 0.06 g lung weight × 100/g body weight															
O=c1c(-c2ccccc2)coc2cc(OCCNC3CCCCC3)ccc12 [Compound 7]							21	30.2	1.02 ± 0.12	0.98 ± 0.18	-17	41.6	15.8	0.80 ± 0.09 g lung weight × 100/g body weight	0.74 ± 0.06 g lung weight × 100/g body weight	0.76 ± 0.07 g lung weight × 100/g body weight					
COCCOc1ccc2c(=O)c(-c3ccccc3)coc2c1 [Compound F4, reference compound]							-9.25	-29.3	1.14 ± 0.12	1.22 ± 0.13	-86	-64	37.2	0.86 ± 0.07 g lung weight × 100/g body weight	0.84 ± 0.07 g lung weight × 100/g body weight	0.75 ± 0.13 g lung weight × 100/g body weight					
O=c1c(-c2ccccc2)coc2cc(O)ccc12 [Compound F1, reference compound]					27.2	0.85 ± 0.07 g lung weight × 100/g body weight											11.1	30	1.17 ± 0.09	1.06 ± 0.13	inhibition in vivo at 40 mg/kg/day [2, 12]: 15.9%; inhibition in vivo at 50 mg/kg/day [2, 13]: 20.4%; lung index [2, 12]: 0.81 ± 0.06 g lung weight × 100/g body weight; lung index [2, 13]: 0.80 ± 0.05 g lung weight × 100/g body weight
CCC(=O)N(CCOc1ccc2c(=O)c(-c3ccccc3)coc2c1)C1CC1 [Compound 11]	−20.73	0.87 ± 0.04 Lung weight * 100/body weight	6.19	0.83 ± 0.05 Lung weight * 100/body weight	14.1	0.87 ± 0.08 g lung weight × 100/g body weight															
COc1ccc(-c2coc3cc(O)ccc3c2=O)cc1O [Compound F3, reference compound]																	4.07	-18.7	1.19 ± 0.31	1.31 ± 0.22	inhibition in vivo at 40 mg/kg/day [2, 12]: 7.71%; inhibition in vivo at 50 mg/kg/day [2, 13]: 1.81%; lung index [2, 12]: 0.83 ± 0.09 g lung weight × 100/g body weight; lung index [2, 13]: 0.84 ± 0.06 g lung weight × 100/g body weight
